Test results from ChEMBL document CHEMBL3785001, “New pentasubstituted pyrrole hybrid atorvastatin-quinoline derivatives with antiplasmodial activity” (Bioorg Med Chem Lett, 2016).

How the values were obtained:
[1] = tested on: Plasmodium falciparum; assay: Antimalarial activity against chloroquine-sensitive Plasmodium falciparum NF54 infected in human erythrocytes incubated for 48 hrs by [3H]hypoxanthine incorporation assay; format: functional, organism-based
[2] = Cytotoxicity against African green monkey BGM cells assessed as cell viability after 24 hrs by neutral red assay; format: cell-based; details: chlorocebus aethiops, read-out: MLD50
[3] = in vitro; details: monkey
[4] = tested on: Plasmodium falciparum; assay: microbe, parasite or virus in culture; details: W2, 48 h
[5] = tested on: Plasmodium falciparum; assay: Potency index, ratio of primaquine IC50 to compound IC50 for chloroquine-resistant Plasmodium falciparum W2 infected in human red blood cells; format: functional

| Compound | IC50 [1] | CC50 at 24 h [2] | selectivity ratio [3] | IC50 [4] | Ratio IC50 [5] |
| --- | --- | --- | --- | --- | --- |
| C[C@@H]1CC[C@H]2[C@@H](C)C(c3cccn3C)O[C@@H]3O[C@@]4(C)CC[C@@H]1[C@]32OO4 (some centres undefined) | 4.6 nM | – | – | – | – |
| COc1cc(NC(C)CCCN)c2ncccc2c1 (centres undefined) [PRIMAQUINE] | – | 452 µM | 239 | 1890 nM | – |
| CC(C)c1c(C(=O)Nc2ccccc2)c(-c2ccccc2)c(-c2ccc(F)cc2)n1CCCNc1ccnc2cc(Cl)ccc12 | – | 136 µM | 210 | 650 nM | 5 |
| CCCCn1c(-c2ccc(F)cc2)c(-c2ccccc2)c(C(=O)Nc2ccccc2)c1C(C)C | – | > 2200 µM | > 345 | 6390 nM | – |
| CC(C)c1c(C(=O)Nc2ccccc2)c(-c2ccccc2)c(-c2ccc(F)cc2)n1CC[C@@H](O)C[C@@H](O)CC(=O)O [ATORVASTATIN] | – | – | – | 10300 nM | – |
| CC(C)c1c(C(=O)Nc2ccccc2)c(-c2ccccc2)c(-c2ccc(F)cc2)n1CCCCNc1ccnc2cc(Cl)ccc12 | – | 187 µM | 468 | 400 nM | 5 |
| CC(C)c1c(C(=O)Nc2ccccc2)c(-c2ccccc2)c(-c2ccc(F)cc2)n1CCNc1ccnc2cc(Cl)ccc12 | – | > 1660 µM | > 1680 | 990 nM | 5 |
| COc1cc(NC(C)CCCn2c(-c3ccc(F)cc3)c(-c3ccccc3)c(C(=O)Nc3ccccc3)c2C(C)C)c2ncccc2c1 (centres undefined) | – | > 1560 µM | > 1110 | 1410 nM | 5 |
